Assay results published in patent US4677100A, “Cephalosporin derivatives” (Banyu Pharmaceutical Co., Ltd., priority 1984, dated 1987).
Values after ≈ are worked out from the molar mass of the structure shown.

What was measured:
[1] = test system: A. calcoaceticus No. 14; experiment: MIC, agar plate dilution method; format: cell-based; settings: Acinetobacter calcoaceticus; for MIC: A. calcoaceticus No. 14, 10^6 CFU/ml, Sensitivity Disk Agar, read-out: Minimum Inhibitory Concentration
Experimental: (§1) The minimum inhibitory concentrations (MIC: μg/ml) of the compounds of the present invention against various microorganisms were measured by an agar plate dilution method (inoculum size: 10^6 CFU/ml) by using Sensitivity Disk Agar (Nissui) in comparison with Cefotaxime and Ceftazidime as comparative compounds.

[2] = test system: C. freundii No. 7; experiment: MIC, agar plate dilution method; format: cell-based; settings: Citrobacter freundii; C. freundii No. 7; 10^6 CFU/ml; Sensitivity Disk Agar; read-out: Minimum Inhibitory Concentration
Experimental: as §1

[3] = test system: E. cloaceae Nek 39; experiment: MIC, agar plate dilution method; format: cell-based; settings: E. cloaceae Nek 39; 10^6 CFU/ml; Sensitivity Disk Agar; read-out: Minimum Inhibitory Concentration
Experimental: as §1

[4] = test system: E. coli C/Rms149; experiment: MIC, agar plate dilution method; format: cell-based; settings: Escherichia coli, read-out: Minimum Inhibitory Concentration
Experimental: as §1

[5] = test system: E. coli CSH2; experiment: MIC, agar plate dilution method; format: cell-based; settings: Escherichia coli, 10^6 CFU/ml, Sensitivity Disk Agar, read-out: Minimum Inhibitory Concentration
Experimental: as §1

[6] = test system: E. coli CSH; experiment: MIC, agar plate dilution method; format: cell-based; settings: Escherichia coli, read-out: Minimum Inhibitory Concentration
Experimental: as §1

[7] = test system: E. coli ML1410/Rte16; experiment: MIC, agar plate dilution method; format: cell-based; settings: Escherichia coli, ML1410/RTE16, read-out: Minimum Inhibitory Concentration
Experimental: as §1

[8] = test system: E. coli NIHJJC-2; experiment: MIC, agar plate dilution method; format: cell-based; settings: Escherichia coli, NIHJJC2; E. coli NIHJJC-2; 10^6 CFU/ml; Sensitivity Disk Agar; read-out: Minimum Inhibitory Concentration
Experimental: as §1

[9] = test system: E. coli W3630/Rms212; experiment: MIC, agar plate dilution method; format: cell-based; settings: Escherichia coli, W3630/RMS212, read-out: Minimum Inhibitory Concentration
Experimental: as §1

[10] = test system: E. coli W3630/Rms213; experiment: MIC, agar plate dilution method; format: cell-based; settings: Escherichia coli, W3630/RMS213, read-out: Minimum Inhibitory Concentration
Experimental: as §1

[11] = test system: K. pneumoniae No. 42; experiment: MIC, agar plate dilution method; format: cell-based; settings: Klebsiella pneumoniae; K. pneumoniae No. 42; 10^6 CFU/ml; Sensitivity Disk Agar; read-out: Minimum Inhibitory Concentration
Experimental: as §1

[12] = test system: P. mirabilis JY10; experiment: MIC, agar plate dilution method; format: cell-based; settings: Proteus mirabilis; P. mirabilis JY10; 10^6 CFU/ml; Sensitivity Disk Agar; read-out: Minimum Inhibitory Concentration
Experimental: as §1

[13] = test system: P. vulgaris No. 33; experiment: MIC, agar plate dilution method; format: cell-based; settings: Proteus vulgaris; P. vulgaris No. 33; 10^6 CFU/ml; Sensitivity Disk Agar; read-out: Minimum Inhibitory Concentration
Experimental: as §1

[14] = test system: P. vulgaris OB1043; experiment: MIC, agar plate dilution method; format: cell-based; settings: Proteus vulgaris; P. vulgaris OB1043; 10^6 CFU/ml; Sensitivity Disk Agar; read-out: Minimum Inhibitory Concentration
Experimental: as §1

[15] = test system: S. aureus JS-1; experiment: MIC, agar plate dilution method; format: cell-based; settings: Staphylococcus aureus, JS1; S. aureus JS-1; 10^6 CFU/ml; Sensitivity Disk Agar; read-out: Minimum Inhibitory Concentration
Experimental: as §1

[16] = test system: S. aureus NIHJJC-1; experiment: MIC, agar plate dilution method; format: cell-based; settings: Staphylococcus aureus, NIHJJC1; S. aureus NIHJJC-1; 10^6 CFU/ml; Sensitivity Disk Agar; read-out: Minimum Inhibitory Concentration
Experimental: as §1

[17] = test system: S. marcescens No. 16-2; experiment: MIC, agar plate dilution method; format: cell-based; settings: Serratia marcescens, NO.162; S. marcescens No. 16-2; 10^6 CFU/ml; Sensitivity Disk Agar; read-out: Minimum Inhibitory Concentration
Experimental: as §1

[18] = test system: P. aeruginosa AK109; experiment: MIC, agar plate dilution method; format: cell-based, Pseudomonas aeruginosa; settings: for antibacterial activity relative to the compound of Reference Example: Pseudomonas aeruginosa AK109; for MIC: Pseudomonas aeruginosa, P. aeruginosa AK109, 10^6 CFU/ml, Sensitivity Disk Agar, read-out: Minimum Inhibitory Concentration
Experimental: as §1

[19] = test system: P. aeruginosa AKR17; experiment: MIC, agar plate dilution method; format: cell-based, Pseudomonas aeruginosa; settings: for antibacterial activity relative to the compound of Reference Example: Pseudomonas aeruginosa AKR-17, resistant to all cephalosporins including Ceftazidime; for MIC: Pseudomonas aeruginosa, P. aeruginosa AKR17, 10^6 CFU/ml, Sensitivity Disk Agar, read-out: Minimum Inhibitory Concentration
Experimental: as §1

[20] = test system: P. cepacia 23; experiment: MIC, agar plate dilution method; format: cell-based, Pseudomonas cepacia; settings: for MIC: Burkholderia cepacia, P. cepacia 23, 10^6 CFU/ml, Sensitivity Disk Agar, read-out: Minimum Inhibitory Concentration; for antibacterial activity relative to the compound of Reference Example: Pseudomonas cepacia 23
Experimental: as §1

[21] = test system: P. maltophilia IID 1275; experiment: MIC, agar plate dilution method; format: cell-based, Pseudomonas maltophilia; settings: for MIC: Stenotrophomonas maltophilia, IID1275, P. maltophilia IID 1275, 10^6 CFU/ml, Sensitivity Disk Agar, read-out: Minimum Inhibitory Concentration; for antibacterial activity relative to the compound of Reference Example: Pseudomonas maltophilia resistant to all cephalosporins
Experimental: as §1

[22] = test system: Gram-positive bacteria and Gram-negative bacteria; experiment: antibacterial activity, general statement; format: cell-based; settings: sensitive and resistant bacteria
Experimental: as §1

Row | SMILES | antibacterial activity relative to the compound of Reference Example [1] | MIC [1] [µg/mL] | MIC [2] [µg/mL] | MIC [3] [µg/mL] | MIC [4] [µg/mL] | MIC [5] [µg/mL] | MIC [6] [µg/mL] | MIC [7] [µg/mL] | MIC [8] [µg/mL] | MIC [9] [µg/mL] | MIC [10] [µg/mL] | MIC [11] [µg/mL] | MIC [12] [µg/mL] | MIC [13] [µg/mL] | MIC [14] [µg/mL] | MIC [15] [µg/mL] | MIC [16] [µg/mL] | MIC [17] [µg/mL] | antibacterial activity relative to the compound of Reference Example [18] | MIC [18] [µg/mL] | further results
1 | CCON=C(C(=O)NC1C(=O)N2C(C(=O)[O-])=C(C[N+]3(C)Cc4cc(O)c(O)cc4C3)CSC12)c1csc(N)n1 (stereo not shown) [Ex. 5-D, 7-[(Z)-2-(2-aminothiazol-4-yl)-2-ethoxyiminoacetamido]-3-(5,6-dihydroxy-2-methyl-2-isoindolinium) methyl-3-cephem-4-carboxylate] | at least 32 times | 0.2 (≈ 0.348 µM) | 6.25 (≈ 10.9 µM) | ≤ 0.05 | 0.1 (≈ 0.174 µM) | 0.1 (≈ 0.174 µM) | 0.2 (≈ 0.348 µM) | 0.1 (≈ 0.174 µM) | ≤ 0.05 | ≤ 0.05 | 0.2 (≈ 0.348 µM) | 0.1 (≈ 0.174 µM) | 0.2 (≈ 0.348 µM) | 0.2 (≈ 0.348 µM) | 0.78 (≈ 1.36 µM) | 12.5 (≈ 21.8 µM) | 3.12 (≈ 5.43 µM) | 3.12 (≈ 5.43 µM) | at least 16 times | 0.1 (≈ 0.174 µM) | antibacterial activity relative to the compound of Reference Example [19]: at least 32 times; MIC [19]: 0.39 µg/mL (≈ 0.679 µM); MIC [20]: 0.1 µg/mL (≈ 0.174 µM); antibacterial activity relative to the compound of Reference Example [20]: at least 32 times; MIC [21]: 25 µg/mL (≈ 43.5 µM); antibacterial activity (in words) [22]: particularly strong antibacterial activities
2 | C[N+]1(CC2=C(C(=O)[O-])N3C(=O)C(NC(=O)C(=NOC4(C(=O)O)CCCC4)c4csc(N)n4)C3SC2)Cc2cc(O)c(O)cc2C1 (stereo not shown) [Ex. 12-C, 7-[(Z)-2-(2-aminothiazol-4-yl)-2-(1-carboxy-1-cyclopentyloxyimino)acetamido]-3-(5,6-dihydroxy-2-methyl-2-isoindolinium)methyl-3-cephem-4-carbcxylate] | at least 32 times | 0.2 (≈ 0.304 µM) | 1.56 (≈ 2.37 µM) | 0.1 (≈ 0.152 µM) | ≤ 0.05 | 0.1 (≈ 0.152 µM) | 0.1 (≈ 0.152 µM) | ≤ 0.05 | ≤ 0.05 | ≤ 0.05 | ≤ 0.05 | 0.1 (≈ 0.152 µM) | ≤ 0.05 | 0.1 (≈ 0.152 µM) | ≤ 0.05 | > 25 | 25 (≈ 38 µM) | 0.39 (≈ 0.592 µM) | at least 16 times | ≤ 0.05 | antibacterial activity relative to the compound of Reference Example [19]: at least 32 times; MIC [19]: 0.1 µg/mL (≈ 0.152 µM); MIC [20]: ≤ 0.05 µg/mL; antibacterial activity relative to the compound of Reference Example [20]: at least 32 times; antibacterial activity relative to the compound of Reference Example [21]: at least twice as strong; MIC [21]: 6.25 µg/mL (≈ 9.49 µM); antibacterial activity (in words) [22]: particularly strong antibacterial activities
3 | C[N+]1(CC2=C(C(=O)[O-])N3C(=O)C(NC(=O)C(=NOC4CCCC4)c4csc(N)n4)C3SC2)Cc2cc(O)c(O)cc2C1 (stereo not shown) [Ex. 13-D, 7-[(Z)-2-(2-aminothiazol-4-yl)-2-cyclopentyloxyiminoacetamido]-3-(5,6-dihydroxy-2-methyl-2-isoindolinium)methyl-3-cephem-4-carboxylate] | at least 32 times | 0.78 (≈ 1.27 µM) | 1.56 (≈ 2.54 µM) | 0.05 (≈ 0.0813 µM) | 0.05 (≈ 0.0813 µM) | 0.1 (≈ 0.163 µM) | 0.1 (≈ 0.163 µM) | 0.05 (≈ 0.0813 µM) | 0.05 (≈ 0.0813 µM) | 0.025 (≈ 0.0407 µM) | 0.05 (≈ 0.0813 µM) | 0.1 (≈ 0.163 µM) | 0.05 (≈ 0.0813 µM) | 0.1 (≈ 0.163 µM) | 0.2 (≈ 0.325 µM) | 12.5 (≈ 20.3 µM) | 3.12 (≈ 5.08 µM) | 0.78 (≈ 1.27 µM) | at least 16 times | 0.05 (≈ 0.0813 µM) | antibacterial activity relative to the compound of Reference Example [19]: at least 32 times; MIC [19]: 0.39 µg/mL (≈ 0.634 µM); MIC [20]: 0.1 µg/mL (≈ 0.163 µM); antibacterial activity relative to the compound of Reference Example [20]: at least 32 times; antibacterial activity relative to the compound of Reference Example [21]: at least twice as strong; MIC [21]: 12.5 µg/mL (≈ 20.3 µM); antibacterial activity (in words) [22]: particularly strong antibacterial activities
4 | CO/N=C(\C(=O)NC1C(=O)N2C(C(=O)[O-])=C(C[N+]3(C)Cc4cc(OC(C)=O)c(OC(C)=O)cc4C3)CSC12)c1csc(N)n1 (stereo not shown) [Ex. 3-D] | at least 32 times | 0.2 (≈ 0.31 µM) | 6.25 (≈ 9.69 µM) | ≤ 0.05 | 0.1 (≈ 0.155 µM) | 0.2 (≈ 0.31 µM) | 1.56 (≈ 2.42 µM) | 0.1 (≈ 0.155 µM) | ≤ 0.05 | ≤ 0.05 | 0.78 (≈ 1.21 µM) | 0.2 (≈ 0.31 µM) | 0.39 (≈ 0.605 µM) | 0.2 (≈ 0.31 µM) | 3.12 (≈ 4.84 µM) | 25 (≈ 38.8 µM) | 6.25 (≈ 9.69 µM) | 6.25 (≈ 9.69 µM) | at least 16 times | 0.2 (≈ 0.31 µM) | antibacterial activity relative to the compound of Reference Example [19]: at least 32 times; MIC [19]: 0.78 µg/mL (≈ 1.21 µM); MIC [20]: 0.39 µg/mL (≈ 0.605 µM); antibacterial activity relative to the compound of Reference Example [20]: at least 32 times; MIC [21]: 25 µg/mL (≈ 38.8 µM); antibacterial activity (in words) [22]: particularly strong antibacterial activities
5 | C[N+]1(CC2=C(C(=O)[O-])N3C(=O)C(NC(=O)C(=NOC4(C(=O)O)CC4)c4csc(N)n4)C3SC2)Cc2cc(O)c(O)cc2C1 (stereo not shown) [Ex. 10-E, 7-[(Z)-2-(2-aminothiazol-4-yl)-2-(1-carboxy-1-cyclopropoxyimino)acetamido]-3-(5,6-dihydroxy-2-methyl-2-isoindolinium)methyl-3-cephem-4-carboxylate] | at least 32 times | 0.2 (≈ 0.317 µM) | 1.56 (≈ 2.47 µM) | ≤ 0.05 | ≤ 0.05 | ≤ 0.05 | ≤ 0.05 | ≤ 0.05 | ≤ 0.05 | ≤ 0.05 | ≤ 0.05 | 0.1 (≈ 0.159 µM) | ≤ 0.05 | ≤ 0.05 | ≤ 0.05 | > 25 | 25 (≈ 39.6 µM) | 0.39 (≈ 0.618 µM) | at least 16 times | ≤ 0.05 | antibacterial activity relative to the compound of Reference Example [19]: at least 32 times; MIC [19]: 0.1 µg/mL (≈ 0.159 µM); MIC [20]: ≤ 0.05 µg/mL; antibacterial activity relative to the compound of Reference Example [20]: at least 32 times; antibacterial activity relative to the compound of Reference Example [21]: at least twice as strong; MIC [21]: 3.12 µg/mL (≈ 4.95 µM); antibacterial activity (in words) [22]: particularly strong antibacterial activities
